Some test systems named below: 786-0; HCT-116; CAKI-1; MOLT-4; MDA-MB-435; OVCAR-4; SF-295; RPMI-8226; SR; K562; HCT-15; M14; TK-10; ACHN; UACC-257; Malme-3M; CCRF-CEM; NCI-H522; KM12; U-251.
Holding throughout (assay): growth of human tumour cells (NCI), 48 h

These results are taken from ChEMBL document CHEMBL1201862, “PubChem BioAssay data set” (2004).

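Interpolation was linear, between the two tested concentrations surrounding the appropriate level; five concentrations were tested over 48 hours in 96-well plates. The concentration for 50% growth inhibition is given as GI50.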 Activity calls are given as the source filed them. Cut-off read from the data, not from the text of the source: active = GI50 up to about 1.1 µM and inactive = higher.

As for `COc1cc(/C=C2\C[C@H]3[C@@H]4CCc5cc(O)ccc5[C@H]4CC[C@]3(C)C2=O)cc(OC)c1OC`, the GI50 in the experiment with 786-0 is 15.6 µM (inactive); in the experiment on HCT-116, 13.4 µM (inactive); in the experiment on CAKI-1, 11.4 µM (inactive); in the experiment on MOLT-4, 11.1 µM (inactive); in the experiment on MDA-MB-435 it was 16.9 µM (inactive); in the experiment on OVCAR-4, 15.8 µM (inactive). In addition, the GI50 in the experiment with SF-295 was 12.6 µM (inactive); in the experiment with RPMI-8226, 14.4 µM (inactive); with SR, 3.21 µM (inactive); in the experiment with K562, 12.3 µM (inactive); in the experiment with HCT-15, 25.8 µM; in the experiment with M14 it was 16.8 µM (inactive). Also, the GI50 with TK-10 was 8.81 µM (inactive); in the experiment on ACHN it was 15.5 µM (inactive); with UACC-257, 10.8 µM (inactive); with Malme-3M, 2.53 µM (inactive); in the experiment with CCRF-CEM it was 12.9 µM (inactive); in the experiment on NCI-H522 it was 1.83 µM (inactive). The GI50 in the experiment with KM12 is 14 µM (inactive); in the experiment with U-251, 15.8 µM (inactive).
Take `CN1C2CCC1CC(CCNC(c1ccccc1)c1ccccc1)C2` (stereo not given): the GI50 is 17.5 µM (inactive) with 786-0; 18.3 µM (inactive) with HCT-116; 59.7 µM (inactive) in the experiment with CAKI-1; 25.4 µM (inactive) in the experiment with MOLT-4; 6.81 µM (inactive) with MDA-MB-435; > 100 µM (inactive) in the experiment on OVCAR-4. For the same molecule, the GI50 is 22.5 µM (inactive) with SF-295; 20.2 µM (inactive) in the experiment on RPMI-8226; 15.3 µM (inactive) in the experiment on SR; 6.5 µM (inactive) in the experiment on K562; 33.7 µM in the experiment with HCT-15; 11.6 µM (inactive) with M14. For the same molecule, the GI50 in the experiment on TK-10 was 22.2 µM (inactive); in the experiment with ACHN, 80.5 µM (inactive); in the experiment on UACC-257, 16.4 µM (inactive); in the experiment with Malme-3M, 17.3 µM (inactive); with CCRF-CEM, 36 µM (inactive); in the experiment on NCI-H522, 25.2 µM (inactive). Besides, the GI50 with KM12 was 44 µM (inactive); in the experiment with U-251, 30.6 µM (inactive).
Consider `C#CC1(O)C(COP(=O)(O)OC(COCCCCCCCCCCCCCCCCCC)COP(=O)(O)OCC2OC(n3cc(C)c(=O)[nH]c3=O)CC2N=[N+]=[N-])OC(n2ccc(N)nc2=O)C1O` (stereo not given), for which the GI50 is 0.706 µM (active) with 786-0; 0.105 µM (active) with HCT-116; 0.31 µM (active) in the experiment on CAKI-1; 0.347 µM (active) in the experiment on MOLT-4; 0.859 µM (active) in the experiment with MDA-MB-435; 4.45 µM (inactive) with OVCAR-4. In addition, the GI50 in the experiment with SF-295 is 0.221 µM (active); with RPMI-8226, 0.0644 µM (active); in the experiment on SR, < 0.0429 µM (active); with K562, 0.216 µM (active); in the experiment on HCT-15, 0.582 µM; in the experiment with M14, 8.02 µM (inactive). For the same molecule, the GI50 was 0.505 µM (active) with TK-10; 0.432 µM (active) with ACHN; 3.77 µM (inactive) in the experiment on UACC-257; 1.66 µM (inactive) with Malme-3M; 0.562 µM (active) in the experiment on CCRF-CEM; 0.083 µM (active) with NCI-H522. For the same molecule, the values for the GI50 with KM12 and in the experiment on U-251 were 0.891 µM (active) and 0.264 µM (active), respectively.
With `COC(=O)C1CCC(=O)N1C(c1ccc(OC)cc1)c1ccc2c(c1)OCO2` (stereo not given), the GI50 in the experiment with 786-0 was 62.8 µM (inactive); in the experiment with HCT-116, 29 µM (inactive); with CAKI-1, 62.8 µM (inactive); in the experiment on MOLT-4, 36.3 µM (inactive); in the experiment with MDA-MB-435, 7.01 µM (inactive); in the experiment on OVCAR-4, > 100 µM (inactive). Besides, the GI50 with SF-295 was 17 µM (inactive); in the experiment on RPMI-8226 it was 43.3 µM (inactive); in the experiment with SR it was 31 µM (inactive); in the experiment with K562, 23.4 µM (inactive); in the experiment with HCT-15 it was 32.3 µM; in the experiment on M14, 28.5 µM (inactive). Besides, the GI50 is > 100 µM (inactive) in the experiment on TK-10; 97.9 µM (inactive) in the experiment with ACHN; 39.1 µM (inactive) in the experiment with UACC-257; 45.5 µM (inactive) in the experiment with Malme-3M; 43.1 µM (inactive) in the experiment with CCRF-CEM; 22.4 µM (inactive) with NCI-H522. The GI50 in the experiment with KM12 is 9.46 µM (inactive); with U-251, 39.4 µM (inactive).
`COc1ccc(NC(C)=O)cc1N1C(=O)/C(=C\c2cc(OC)c(OC)c(OC)c2)S(=O)(=O)C1c1ccccc1` (stereo not given): the GI50 in the experiment on 786-0 is 72.9 µM (inactive); in the experiment with HCT-116, 29.3 µM (inactive); in the experiment with CAKI-1 it was > 100 µM (inactive); in the experiment with MOLT-4, 22 µM (inactive); in the experiment with MDA-MB-435, 39.7 µM (inactive); with OVCAR-4, 31.6 µM (inactive). The GI50 in the experiment on SF-295 was 55 µM (inactive); with RPMI-8226, 65.8 µM (inactive); with SR it was 33 µM (inactive); in the experiment with K562, 28.5 µM (inactive); in the experiment with HCT-15, 73.1 µM; in the experiment with M14, 69.5 µM (inactive). Further, the GI50 in the experiment with TK-10 was > 100 µM (inactive); with ACHN, 70.5 µM (inactive); in the experiment on UACC-257, 89.5 µM (inactive); with Malme-3M, 78.3 µM (inactive); in the experiment on CCRF-CEM, 29.3 µM (inactive); with NCI-H522, 45.5 µM (inactive). Moreover, the results for the GI50 in the experiment with KM12 and with U-251 were 46.7 µM (inactive) and 46.8 µM (inactive), respectively.
In the case of `CC(C)/C(Cl)=N\OC(=O)Nc1ccc(C#N)cc1`, the GI50 in the experiment with 786-0 was 5.12 µM (inactive); with HCT-116, 5 µM (inactive); with CAKI-1, 5.58 µM (inactive); in the experiment on MOLT-4, 1.92 µM (inactive); in the experiment on MDA-MB-435, 8.04 µM (inactive); in the experiment with OVCAR-4 it was 1.63 µM (inactive). The GI50 with SF-295 was 19 µM (inactive); with RPMI-8226 it was 2.56 µM (inactive); in the experiment with SR, 2.17 µM (inactive); in the experiment on K562, 2 µM (inactive); in the experiment with HCT-15, 10.5 µM; in the experiment with M14 it was 3.01 µM (inactive). Also, the GI50 is 5.35 µM (inactive) in the experiment on TK-10; 6.95 µM (inactive) with ACHN; 12.3 µM (inactive) with UACC-257; 2.62 µM (inactive) with Malme-3M; 1.05 µM (active) with CCRF-CEM; 1.75 µM (inactive) in the experiment with NCI-H522. The results for the GI50 in the experiment on KM12 and in the experiment on U-251 were 15.8 µM (inactive) and 18 µM (inactive), respectively.
Turning to `O=c1oc2ccc([N+](=O)[O-])cc2cc1-c1csc(-c2ccccc2)n1`, the GI50 in the experiment on 786-0, in the experiment on HCT-116, in the experiment on CAKI-1, in the experiment on MOLT-4, in the experiment on MDA-MB-435 and in the experiment with OVCAR-4 was > 100 µM (inactive) throughout. Moreover, the GI50 is > 100 µM (inactive) in the experiment with SF-295; > 100 µM (inactive) in the experiment with RPMI-8226; > 100 µM (inactive) in the experiment on SR; > 100 µM (inactive) in the experiment with K562; > 100 µM in the experiment on HCT-15; > 100 µM (inactive) in the experiment with M14. Besides, the GI50 in the experiment with TK-10 is > 100 µM (inactive); in the experiment on ACHN, > 100 µM (inactive); in the experiment on UACC-257, > 100 µM (inactive); with Malme-3M, 32.6 µM (inactive); in the experiment with CCRF-CEM, > 100 µM (inactive); in the experiment on NCI-H522 it was > 100 µM (inactive). Further, the GI50 in the experiment with KM12 and in the experiment on U-251 was > 100 µM (inactive) throughout.
With `COc1ccc2nc3cc([N+](=O)[O-])ccc3c(Nc3ccc(S(=O)(=O)Nc4ncccn4)cc3)c2c1`, the GI50 was 67 µM (inactive) with 786-0; 40.6 µM (inactive) in the experiment with HCT-116; > 100 µM (inactive) with CAKI-1; > 20.2 µM (inactive) in the experiment on MOLT-4; > 67.3 µM (inactive) with MDA-MB-435; > 100 µM (inactive) in the experiment with OVCAR-4. The GI50 with SF-295 was 99.5 µM (inactive); with RPMI-8226 it was 14.5 µM (inactive); in the experiment on SR, 6.24 µM (inactive); in the experiment on K562, 35.4 µM (inactive); in the experiment with HCT-15, > 69.8 µM; with M14, 48.8 µM (inactive). Moreover, the GI50 is 66.8 µM (inactive) in the experiment with TK-10; 28.8 µM (inactive) in the experiment on ACHN; > 71.1 µM (inactive) in the experiment with UACC-257; 48.3 µM (inactive) in the experiment with Malme-3M; > 76.9 µM (inactive) in the experiment with CCRF-CEM; > 71.1 µM (inactive) in the experiment on NCI-H522. Moreover, the values for the GI50 in the experiment on KM12 and in the experiment on U-251 were 31.7 µM (inactive) and > 55 µM (inactive), respectively.
For the molecule `Cc1cc2c(cc1C)[n+]([O-])c(C(=O)N1CCN(c3ccc([N+](=O)[O-])cc3)CC1)c(C)[n+]2[O-]`, the GI50 is 14.3 µM (inactive) in the experiment on 786-0; 28.9 µM (inactive) with HCT-116; > 100 µM (inactive) with CAKI-1; > 100 µM (inactive) in the experiment on MOLT-4; > 100 µM (inactive) in the experiment on MDA-MB-435; > 100 µM (inactive) with OVCAR-4. The GI50 in the experiment on SF-295 was 16.1 µM (inactive); in the experiment with RPMI-8226, > 100 µM (inactive); with SR, > 100 µM (inactive); in the experiment with K562, > 100 µM (inactive); in the experiment with HCT-15, 77.6 µM; in the experiment on M14, 32.5 µM (inactive). The GI50 was 18.1 µM (inactive) in the experiment with TK-10; 2.84 µM (inactive) with ACHN; > 100 µM (inactive) in the experiment with UACC-257; > 100 µM (inactive) with Malme-3M; > 100 µM (inactive) in the experiment with CCRF-CEM; 75.3 µM (inactive) in the experiment on NCI-H522. Also, the GI50 with KM12 was > 100 µM (inactive); in the experiment on U-251, 11.9 µM (inactive).
`CN(CCCN=C=S)CCCN1c2ccccc2CCc2ccccc21`: the GI50 was 1.64 µM (inactive) in the experiment with 786-0; 1.71 µM (inactive) with HCT-116; 1.73 µM (inactive) in the experiment on CAKI-1; 0.611 µM (active) in the experiment with MOLT-4; 1.79 µM (inactive) in the experiment on MDA-MB-435; 1.85 µM (inactive) in the experiment with OVCAR-4. Moreover, the GI50 in the experiment on SF-295 is 1.71 µM (inactive); in the experiment on RPMI-8226, 1.87 µM (inactive); in the experiment on SR, 0.456 µM (active); in the experiment with K562, 0.45 µM (active); with HCT-15, 1.49 µM; in the experiment on M14, 1.71 µM (inactive). Moreover, the GI50 with TK-10 is 1.82 µM (inactive); with ACHN, 1.75 µM (inactive); in the experiment with UACC-257, 2.03 µM (inactive); in the experiment with Malme-3M it was 1.99 µM (inactive); in the experiment with CCRF-CEM it was 1.85 µM (inactive); in the experiment with NCI-H522, 1.95 µM (inactive). Further, the GI50 was 1.73 µM (inactive) with KM12 and 1.81 µM (inactive) in the experiment with U-251.
